Measured values published in PMC6669887 (Analytical chemistry, 2019).

Test system: A2AR
Assay: Affinity MS assay/screen with purified immobilized receptor
Assay type: binding
Details: 480-mix cocktails

hit detection/selection in 480-mix screens: detected in all cocktails
Structure (SMILES): CCNC(=O)[C@H]1O[C@@H](n2cnc3c(NCC(c4ccccc4)c4ccccc4)nc(C(=O)NCCNC(=O)NC4CCN(c5ccccn5)CC4)nc32)[C@H](O)[C@@H]1O [UK-432,097]
